Results reported in ChEMBL document CHEMBL5724558, “Image-based profiling of drug vulnerabilities in CRC organoids” (2024).
Where “and” joins values, the source holds several entries; their conditions need not be identical. Equal values may be shown once.

How the values were obtained:
Format in all cases: functional, Homo sapiens
Design in all cases: dose or concentration left out as unconfirmed
[1] = tested on: Colon cancer organoid; experiment: (§1) Image-based profiling of donated chemical probes and chemogenomic kinase set in O21 CRC organoid. Image analysis is performed on the sum area metric, and the data were normalized to the DMSO control. After imaging the organoid viability is measured using the OneGloEX Luciferase Assay System. The normalized viability data and sum area are reported.
[2] = tested on: Colon cancer organoid; experiment: as §1, with “O09” for “O21”
[3] = tested on: Colon cancer organoid; experiment: as §1, with “O06” for “O21”

Row | Compound | Cell Viability ([1]; Replication number 1) | Cell Viability ([1]; Replication number 2) | Cell Viability ([2]; Replication number 1) | Cell Viability ([2]; Replication number 2) | Cell Viability ([3]; Replication number 1) | Cell Viability ([3]; Replication number 2)
1 | COc1cc(Nc2nc(C)cc(-c3cnn4nc(OC)ccc34)n2)cc(C(F)(F)F)c1 | 100.392% and 88.9748% | 126.257% and 100.876% | 104.965% and 91.5636% | 103.466% and 113.093% | 101.755% and 109.64% | 94.2101% and 91.9205%
2 | C[C@@H]1CCN(C(=O)CC#N)C[C@@H]1N(C)c1ncnc2[nH]ccc12.O=C(O)CC(O)(CC(=O)O)C(=O)O [TOFACITINIB CITRATE] | 116.988% and 133.24% | 108.318% and 111.695% | 230.679% and 101.979% | 85.7625% and 94.2129% | 54.8894% and 73.0004% | 74.5746% and 82.0566%
3 | C[C@@]1(Cc2ccc(C#N)cc2)C(=O)N(c2cc(Cl)cc(Cl)c2)c2ncc(C(=O)NC3(c4nc(C5CCC5)no4)CC3)n21 [BI 9446] | 115.902% and 114.683% | 106.853% and 94.898% | 73.271% and 85.2933% | 87.2778% and 108.945% | 120.452% and 119.438% | 141.276% and 120.817%
4 | Cc1cc(CN)cc(C)c1-c1ncn(C)c1-c1ccnc2cc(F)ccc12.Cl | 125.215% and 107.577% | 113.008% and 89.6778% | 165.285% and 103.632% | 176.587% and 123.725% | 218.867% and 141.584% | 205.957% and 111.843%
5 | COc1ncc(F)cc1CNc1ccc(Cc2c[nH]c3ncc(C)cc23)c(F)n1 [PLX-5622] | 106.139% and 77.4913% | 117.508% and 96.7254% | 193.371% and 111.454% | 159.434% and 112.03% | 113.45% and 123.522% | 100.072% and 108.792%
6 | FC(F)(F)c1ccc2c(c1)nc(-c1cccnc1)n2C1CC1 [MSD-CYP11B2-Negative-control] | 89.0845% and 95.4893% | 78.0159% and 105.031% | 82.6005% and 103.914% | 111.8% and 104.679% | 82.4588% and 96.4372% | 50.7409% and 62.2297%
7 | CC1=C(C)C(=O)C(C(C)(C)CC(=O)N(CCCCSC[C@H]2O[C@@H](n3cnc4c(N)ncnc43)[C@@H]3OC(C)(C)O[C@@H]32)Cc2cccc(-c3ccc(Cl)cc3)c2)=C(C)C1=O | 97.336% and 122.861% | 82.8638% and 97.7327% | 93.185% and 86.476% | 68.1346% and 85.8093% | 141.238% and 103.893% | 153.713% and 129.049%
8 | CC(=O)Nc1ncc(CN2CCC[C@H](Cc3cc(C)nc(C)c3)C2)s1 [JNJ-65355394] | 79.2381% and 103.709% | 88.6271% and 113.344% | 144.44% and 104.679% | 146.748% and 114.826% | 89.0088% and 111.578% | 103.026% and 113.793%
9 | CC(C)N(CCCNC(=O)Nc1ccc(C(C)(C)C)cc1)C[C@H]1O[C@@H](n2cc(Br)c3c(N)ncnc32)[C@H](O)[C@@H]1O | 110.58% and 96.4076% | 91.3203% and 86.9928% | 88.0955% and 91.1128% | 116.782% and 110.611% | 99.7362% and 93.745% | 121.159% and 96.0701%
10 | Cn1cc(-c2ccc3occ(-c4ccccc4-c4ccccc4)c3n2)cn1 | 120.62% and 121.278% | 112.27% and 102.009% | 118.722% and 95.2756% | 122.009% and 96.5129% | 113.014% and 144.526% | 79.1768% and 87.7674%
11 | NS(=O)(=O)c1cc(NC(=O)C2(c3ccccc3Cl)CC2)ccc1Oc1cccc(Cl)c1 [BAY-207] | 111.619% and 128.655% | 96.7656% and 94.898% | 172.466% and 128.537% | 110.661% and 134.648% | 85.045% and 103.044% | 47.3713% and 82.6769%
12 | O=C(NC[C@H](O)CN1CCc2ccccc2C1)c1ccnc(NC2CCC2)c1 | 82.4125% and 78.1842% | 61.8775% and 72.494% | 64.9401% and 74.8841% | 97.6148% and 75.2613% | 27.5023% and 69.1007% | 41.1138% and 71.2161%
13 | Cn1cnc2c(F)c(Nc3ccc(Br)cc3Cl)c(C(=O)NOCCO)cc21 [SELUMETINIB] | 30.9074% and 27.5425% | 36.6071% and 40.747% | 59.0124% and 83.6445% | 134.387% and 96.018% | 17.7792% and 31.8399% | 27.9489% and 57.8656%
14 | O=C(N[C@H]1CCCCC/C=C\C2C[C@@]2(C(=O)O)NC(=O)[C@@H]2C[C@@H](Oc3ccncc3)CN2C1=O)OC1CCCC1 (stereo partly specified) [BI 1675] | 85.4317% and 92.5614% | 88.5187% and 94.3878% | 116.319% and 81.4707% | 190.904% and 132.895% | 69.4015% and 71.6628% | 66.5819% and 62.7776%
15 | CNC(=O)c1cc(C(=O)NC2CC2)cn(Cc2ccccc2)c1=O [GSK620] | 98.0477% and 88.9414% | 114.221% and 102.991% | 52.8448% and 80.6552% | 55.7609% and 83.862% | 87.0029% and 102.753% | 87.2683% and 118.693%
16 | CCS(=O)(=O)c1cc2cc(C[C@](O)(CC(C)(C)c3ccc(F)cc3C(N)=O)C(F)(F)F)[nH]c2cn1 [BI 653048] | 95.8907% and 94.89% | 87.1647% and 83.1633% | 139.667% and 102.973% | 122.797% and 92.0044% | 90.5623% and 97.4239% | 82.9692% and 113.237%
17 | CCn1cc(-c2cccc(C(F)(F)F)c2)c2sc(C(=N)NC3CCS(=O)(=O)CC3)cc2c1=O | 121.201% and 130.503% | 111.866% and 107.936% | 136.882% and 100.386% | 86.2111% and 86.0944% | 179.562% and 135.302% | 139.17% and 96.3091%
18 | COc1cc(OC)cc(-c2noc(N3CCN(C)C4(CCN(c5ccnc(C)c5)CC4)C3)n2)c1 | 102.094% and 140.496% | 79.0091% and 95.0477% | 147.791% and 90.4173% | 237.296% and 126.576% | 99.0993% and 95.9195% | 203.392% and 146.256%
19 | C[C@@H](c1cccc(C#N)c1)n1cc(Cl)cc(C(N)=O)c1=N.Cl | 94.9994% and 100.946% | 88.3604% and 82.5969% | 93.1286% and 91.7219% | 106.099% and 101.903% | 94.9066% and 108.826% | 100.434% and 114.368%
20 | COc1ccc(Cn2ccc3ccc(C(=O)NO)cc32)cc1 | 103% and 112.867% | 100.715% and 96.6587% | 110.805% and 94.5904% | 117.665% and 84.3839% | 150.267% and 98.5772% | 160.829% and 118.056%
21 | CCn1c(-c2nc3cc(C(=O)N4CCCC(N)C4)ccc3n2C)cc2ccccc21.Cl (stereo unspecified) | 104.488% and 105.813% | 105.345% and 85.3819% | 117.35% and 104.328% | 180.446% and 129.427% | 210.545% and 138.685% | 140.649% and 97.743%
22 | Cc1noc([C@H]2C[C@@H](c3ccc(C(F)(F)F)cc3)CN(C(=O)N3CCS(=O)(=O)C3)C2)n1 [BAY-448] | 88.3285% and 80.3363% | 88.286% and 95.9184% | 144.748% and 117.786% | 135.729% and 111.574% | 117.281% and 106.792% | 86.8627% and 94.2849%
23 | CCCc1cc(C)[nH]c(=O)c1CNC(=O)c1cc(-c2ccnc(N3CCN(C)CC3)c2)cc2c1cnn2C(C)C | 85.4576% and 83.4749% | 100.02% and 92.3628% | 138.622% and 115.688% | 134.993% and 114.602% | 109.583% and 102.443% | 141.979% and 116.144%
24 | Cn1c(C2(NC(=O)c3ccc4c(C5CCCC5)c(-c5ncc(Br)cn5)n(C)c4c3)CCC2)nc2ccc(/C=C/C(=O)O)cc21 [DELEOBUVIR] | 112.195% and 113.344% | 113.774% and 112.777% | 177.935% and 120.27% | 86.2792% and 92.0585% | 72.8568% and 101.611% | 116.691% and 122.099%
25 | CN(C)[C@H]1CN(C2CCc3cccc(F)c32)C[C@@H]1c1ccc(N2CCN(S(C)(=O)=O)CC2)cc1 (stereo partly specified) | 78.9326% and 94.0562% | 85.3871% and 90.7518% | 201.275% and 108.733% | 175.885% and 109.186% | 159.825% and 136.993% | 128.982% and 128.571%
26 | CC(C)(O)CNc1ncc(-c2ccnc(Nc3ccnc(Cl)c3)n2)c(CC2CC2)n1 | 40.3035% and 73.5889% | 46.8315% and 88.665% | 50.3707% and 42.8861% | 72.1392% and 56.6897% | 43.9028% and 71.665% | 60.8585% and 108.175%
